Among the data in patent US10035790B2, “RORγ modulators” (BRISTOL-MYERS SQUIBB COMPANY, priority 2012, dated 2018) are IC50 values, retold here.

SMILES strings stand for the structures.

This assay has as its target T1, ligand binding domain of human RORγ (A262-S507) (Homo sapiens, UniProt P51449).
T1 construct: made in house; host or cells: E. coli
T1 sequence (P51449 262-507): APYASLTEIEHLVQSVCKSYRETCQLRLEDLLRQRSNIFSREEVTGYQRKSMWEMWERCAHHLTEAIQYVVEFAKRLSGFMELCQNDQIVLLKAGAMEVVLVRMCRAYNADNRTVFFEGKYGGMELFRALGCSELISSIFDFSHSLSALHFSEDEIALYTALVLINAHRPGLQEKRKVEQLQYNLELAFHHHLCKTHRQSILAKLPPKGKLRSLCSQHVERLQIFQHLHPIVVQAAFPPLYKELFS
The assay is described as follows: General RORγ SPA binding assay (competition with [3H]25-hydroxycholesterol). To be noted: RORγ SPA binding assay, inhibition of [3H]25-hydroxycholesterol binding; read-out: IC50. In a few lines:
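N-terminally His-tagged protein was expressed in E. coli and nickel-purified. Then 50 nM protein was preincubated with compound for 15 min at room temperature in PBS with 0.5% fatty acid free BSA, followed by radioligand for 15 min and copper His-tag SPA beads for 30 min. IC50 came from percent inhibition of binding.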
As for `Cc1nc(N)nc(C2CCN(C(=O)Oc3ccc(F)cc3)CC2)c1-c1nnc(-c2ccnc(C(F)(F)F)n2)o1` [Compound C53, 4-Fluorophenyl 4-(2-amino-6-methyl-5-{5-[2-(trifluoromethyl)pyrimidin-4-yl]-1,3,4-oxadiazol-2-yl}pyrimidin-4-yl)piperidine-1-carboxylate], the IC50 is 37.3 nM.

In the case of `Cc1nc(N)nc(C2CCN(C(=O)Oc3cc(F)ccc3F)CC2)c1-c1nnc(-c2ccnc(C(F)(F)F)n2)o1` [Compound C54, 2,5-Difluorophenyl 4-(2-amino-6-methyl-5-{5-[2-(trifluoromethyl)pyrimidin-4-yl]-1,3,4-oxadiazol-2-yl}pyrimidin-4-yl)piperidine-1-carboxylate], the half-maximal inhibitory concentration (IC50) is 21.1 nM.

Consider `Cc1nc(N)nc(C2CCN(C(=O)Oc3cccc(F)c3)CC2)c1-c1nnc(-c2ccnc(C(F)(F)F)n2)o1` [Compound C55, 3-Fluorophenyl 4-(2-amino-6-methyl-5-{5-[2-(trifluoromethyl)pyrimidin-4-yl]-1,3,4-oxadiazol-2-yl}pyrimidin-4-yl)piperidine-1-carboxylate], for which the IC50 is 19.2 nM.

As for `Cc1nc(N)nc(C2CCN(C(=O)Oc3ccc(F)cc3F)CC2)c1-c1nnc(-c2ccnc(C(F)(F)F)n2)o1` [Compound C56, 2,4-Difluorophenyl 4-(2-amino-6-methyl-5-{5-[2-(trifluoromethyl)pyrimidin-4-yl]-1,3,4-oxadiazol-2-yl}pyrimidin-4-yl)piperidine-1-carboxylate], the IC50 is 24.7 nM.

With `COc1ccccc1OC(=O)N1CCC(c2nc(N)nc(C)c2-c2nnc(-c3ccnc(C(F)(F)F)n3)o2)CC1` [Compound C57, 2-(methyloxy)phenyl 4-(2-amino-6-methyl-5-{5-[2-(trifluoromethyl)pyrimidin-4-yl]-1,3,4-oxadiazol-2-yl}pyrimidin-4-yl)piperidine-1-carboxylate], the IC50 was determined as 23.6 nM.

`CSc1nc(C)c(-c2nnc(-c3cccc(C(F)(F)F)n3)o2)c(C2CCN(C(=O)Nc3c(F)cccc3F)CC2)n1` [Compound C58, N-(2,6-Difluorophenyl)-4-[6-methyl-2-(methylthio)-5-{5-[6-(trifluoromethyl)pyridin-2-yl]-1,3,4-oxadiazol-2-yl}pyrimidin-4-yl]piperidine-1-carboxamide]: the IC50 amounted to 14.1 nM.

Take `Cc1nc(N)nc(C2CCN(C(=O)Nc3c(F)cccc3F)CC2)c1-c1nnc(-c2cccc(C(F)(F)F)n2)o1` [Compound C59, 4-(2-Amino-6-methyl-5-{5-[6-(trifluoromethyl)pyridin-2-yl]-1,3,4-oxadiazol-2-yl}pyrimidin-4-yl)-N-(2,6-difluorophenyl)piperidine-1-carboxamide]: the IC50 is 27.9 nM.

For the compound `COc1nc(C)c(-c2nnc(-c3cccc(C(F)(F)F)n3)o2)c(C2CCN(C(=O)Nc3c(F)cccc3F)CC2)n1` [Compound C60, N-(2,6-Difluorophenyl)-4-[6-methyl-2-(methyloxy)-5-{5-[6-(trifluoromethyl)pyridin-2-yl]-1,3,4-oxadiazol-2-yl}pyrimidin-4-yl]piperidine-1-carboxamide], the IC50 was 204 nM.

As for `COc1nc(C)c(-c2nnc(-c3ccnc(C(F)(F)F)n3)o2)c(C2CCN(C(=O)Nc3c(F)cccc3F)CC2)n1` [Compound C61, N-(2,6-Difluorophenyl)-4-[6-methyl-2-(methyloxy)-5-{5-[2-(trifluoromethyl)pyrimidin-4-yl]-1,3,4-oxadiazol-2-yl}pyrimidin-4-yl]piperidine-1-carboxamide], the IC50 turned out to be 1140 nM.

Consider `Cc1ncc(-c2nnc(-c3ccnc(C(F)(F)F)n3)o2)c(C2CCN(C(=O)Cc3c(F)cccc3F)CC2)n1` [Compound C62, 4-{1-[(2,6-difluorophenyl)acetyl]piperidin-4-yl}-2-methyl-5-{5-[2-(trifluoromethyl)pyrimidin-4-yl]-1,3,4-oxadiazol-2-yl}pyrimidine], for which the IC50 is 157 nM.

On to `Cc1nc(C)c(-c2nc(-c3cccc(C(F)(F)F)c3)no2)c(C2CCN(C(=O)Nc3c(F)cccc3F)CC2)n1` [Compound C63, N-(2,6-difluorophenyl)-4-(2,6-dimethyl-5-{3-[3-(trifluoromethyl)phenyl]-1,2,4-oxadiazol-5-yl}pyrimidin-4-yl)piperidine-1-carboxamide], for which the IC50 came to 281 nM.

`Cc1nc(C)c(-c2nc(-c3cccc(C(F)(F)F)c3)no2)c(C2CCN(C(=O)Nc3c(F)cccc3C(F)(F)F)CC2)n1` [Compound C64, 4-(2,6-Dimethyl-5-{3-[3-(trifluoromethyl)phenyl]-1,2,4-oxadiazol-5-yl}pyrimidin-4-yl)-N-[2-fluoro-6-(trifluoromethyl)phenyl]piperidine-1-carboxamide]: the IC50 was found to be 183 nM.

On to `Cc1nc(C)c(-c2nc(-c3cccc(C(F)(F)F)c3)no2)c(C2CCN(C(=O)c3c(F)cccc3F)CC2)n1` [Compound C65, 4-{1-[(2,6-Difluorophenyl)carbonyl]piperidin-4-yl}-2,6-dimethyl-5-{3-[3-(trifluoromethyl)phenyl]-1,2,4-oxadiazol-5-yl}pyrimidine], for which the IC50 stood at 2730 nM.

In the case of `Cc1nc(C)c(-c2ncc(-c3cccc(Cl)c3)o2)c(C2CCN(C(=O)Cc3c(F)cccc3F)CC2)n1` [Compound C66, 5-[5-(3-Chlorophenyl)-1,3-oxazol-2-yl]-4-{1-[(2,6-difluorophenyl)acetyl]piperidin-4-yl}-2,6-dimethylpyrimidine], the IC50 came out at 65.9 nM.

For the compound `Cc1nc(C)c(-c2ncc(-c3cccc(Cl)c3)o2)c(C2CCN(C(=O)Nc3c(F)cccc3F)CC2)n1` [Compound C67, 4-{5-[5-(3-Chlorophenyl)-1,3-oxazol-2-yl]-2,6-dimethylpyrimidin-4-yl}-N-(2,6-difluorophenyl)piperidine-1-carboxamide], the IC50 was determined as 111 nM.

With `Cc1nc(C)c(-c2ncc(-c3ccnc(C(F)(F)F)n3)o2)c(C2CCN(C(=O)Nc3c(F)cccc3F)CC2)n1` [Compound C68, N-(2,6-Difluorophenyl)-4-(2,6-dimethyl-5-{5-[2-(trifluoromethyl)pyrimidin-4-yl]-1,3-oxazol-2-yl}pyrimidin-4-yl)piperidine-1-carboxamide], the half-maximal inhibitory concentration (IC50) was 102 nM.

With `Cc1nc(N)nc(C2CCN(C(=O)Nc3c(F)cccc3F)CC2)c1-c1ncc(-c2ccnc(C(F)(F)F)n2)o1` [Compound C69, 4-(2-amino-6-methyl-5-{5-[2-(trifluoromethyl)pyrimidin-4-yl]-1,3-oxazol-2-yl}pyrimidin-4-yl)-N-(2,6-difluorophenyl)piperidine-1-carboxamide], the IC50 was 30.8 nM.

`Cc1nc(N)nc(C2CCN(C(=O)Nc3c(F)cccc3F)CC2)c1-c1cnc(-c2ccnc(C(F)(F)F)n2)o1` [Compound C70, 4-(2-Amino-6-methyl-5-{2-[2-(trifluoromethyl)pyrimidin-4-yl]-1,3-oxazol-5-yl}pyrimidin-4-yl)-N-(2,6-difluorophenyl)piperidine-1-carboxamide]: the IC50 was 108 nM.

As to `Cc1nc(N)nc(C2CCN(C(=O)Nc3ccccc3Cl)CC2)c1-c1nnc(-c2ccnc(C(F)(F)F)n2)o1` [Compound C71, 4-(2-Amino-6-methyl-5-{5-[2-(trifluoromethyl)pyrimidin-4-yl]-1,3,4-oxadiazol-2-yl}pyrimidin-4-yl)-N-(2-chlorophenyl)piperidine-1-carboxamide], the IC50 is 30.2 nM.

With `Cc1ncc(C(C)(O)CNc2cccc(Cl)c2)c(C2CCN(C(=O)Cc3c(F)cccc3F)CC2)n1` (stereo not shown) [Compound D1, 1-(4-(5-(1-(3-Chlorophenylamino)-2-hydroxypropan-2-yl)-2-methylpyrimidin-4-yl)piperidin-1-yl)-2-(2,6-difluorophenyl)ethanone], the IC50 turned out to be 2.6 nM.

In the case of `Cc1ncc(C(C)(O)CNc2cccc(C(F)(F)F)n2)c(C2CCN(C(=O)Cc3c(F)cccc3F)CC2)n1` (stereo not shown) [Compound D2, 2-(2,6-difluorophenyl)-1-(4-(5-(2-hydroxy-1-((6-(trifluoromethyl)pyridin-2-yl)amino)propan-2-yl)-2-methylpyrimidin-4-yl)piperidin-1-yl)ethanone], the IC50 stood at 3.9 nM.

For the compound `Cc1cc(C)cc(NCC(C)(O)c2cnc(C)nc2C2CCN(C(=O)Cc3c(F)cccc3F)CC2)c1` (stereo not shown) [Compound D3, 2-(2,6-difluorophenyl)-1-(4-(5-(1-((3,5-dimethylphenyl)amino)-2-hydroxypropan-2-yl)-2-methylpyrimidin-4-yl)piperidin-1-yl)ethanone], the IC50 was found to be 5 nM.

For the compound `Cc1ncc(C(C)(O)CNc2cccc(C(F)(F)F)c2)c(C2CCN(C(=O)Cc3c(F)cccc3F)CC2)n1` (stereo not shown) [Compound D4, 2-(2,6-difluorophenyl)-1-(4-(5-(2-hydroxy-1-((3-(trifluoromethyl)phenyl)amino)propan-2-yl)-2-methylpyrimidin-4-yl)piperidin-1-yl)ethanone], the IC50 was 6.1 nM.

`Cc1ncc(C(C)(O)CNc2ccnc(C(F)(F)F)n2)c(C2CCN(C(=O)Cc3c(F)cccc3F)CC2)n1` (stereo not shown) [Compound D5, 2-(2,6-difluorophenyl)-1-(4-(5-(2-hydroxy-1-((2-(trifluoromethyl)pyrimidin-4-yl)amino)propan-2-yl)-2-methylpyrimidin-4-yl)piperidin-1-yl)ethanone]: the IC50 amounted to 8.4 nM.

As to `Cc1cc(C)nc(NCC(C)(O)c2cnc(C)nc2C2CCN(C(=O)Cc3c(F)cccc3F)CC2)c1` (stereo not shown) [Compound D6, 2-(2,6-difluorophenyl)-1-(4-(5-(1-((4,6-dimethylpyridin-2-yl)amino)-2-hydroxypropan-2-yl)-2-methylpyrimidin-4-yl)piperidin-1-yl)ethanone], the IC50 worked out at 23.3 nM.

By IC50 is commonly meant the concentration at which inhibition is half-maximal.
